PMC7084598, “Design, Synthesis, and Biological Evaluation of Two Series of Novel A-Ring Fused Steroidal Pyrazines as Potential Anticancer Agents” (International Journal of Molecular Sciences, 2020)

What was measured:
MCF-7 (breast carcinoma) = experiment: CCK-8 antiproliferative assay, MCF-7; format: cell-based; conditions: Homo sapiens, MCF7, 48 h, CCK8, mean of three independent experiments, NA = no activity, read-out: Inhibitory Ratio (Mean% ± SD%) MCF-7
Experimental: (§1) All the thirty-six target derivatives (5a–5f, 10a–10o, and 12a–12o) were screened for antiproliferative activities against three human cancer cell lines (MCF-7, PC-3, and HepG2) and cytotoxicity on a normal human cell (THLE-2) at the concentration of 20 μM by using the CCK8 assay.
(§2) Thirty-six novel steroidal A-ring fused pyrazine hybrids were evaluated by Cell Counting Kit-8 (CCK-8) assays, to evaluate their in vitro antiproliferative activities on three human cancer cell lines and one normal cell line: MCF-7 (breast carcinoma), PC-3 (prostate carcinoma), HepG2 (liver hepatocellular carcinoma), and THLE-2 ([…]), with 5-fluorouracil as the positive control.
(§3) Cells (3 × 10^3 cells per well) seeded into 96-well plates (Costar, Shanghai, China) were incubated with Ham’s F-12K containing various concentrations of steroidal pyrazines (5a–5f, 10a–10o, and 12a–12o) for 48 h at 37 °C and 5% COThen, 10 μL of CCK-8 reagent (Beyotime, Shanghai, China) dissolved in PBS (Phosphate buffered saline) was added per well, and continuously incubated at 37 °C for 1 h. Finally, the absorbance of samples taken from each well was measured on a microplate reader at 450 nm. The antiproliferative activities were expressed as inhibitory activity and IC50 values calculated using GraphPad Software 5.0 (GraphPad Software, San Diego, CA, USA), which were the mean values of three independent tests and are shown in Table 1 and Table 2, respectively. The formula used for cell inhibitory rates was (1 - sample absorption/vehicle absorption) × 100%.

[1] = system: PC-3 (prostate carcinoma); experiment: CCK-8 antiproliferative assay, PC-3; format: cell-based, human; conditions: for inhibition at 20 µM / IC50: Homo sapiens; for inhibition at 20 µM: 48 h, CCK8, mean of three independent experiments, NA = no activity, read-out: Inhibitory Ratio (Mean% ± SD%) PC-3; for IC50: CCK-8, 48 h, triplicate; for SI: Selectivity index = (IC50 of THLE-2)/(IC50 of PC-3): THLE-2 vs PC-3
Experimental: as §1, §2, §3

[2] = system: HepG2 (liver hepatocellular carcinoma); experiment: CCK-8 antiproliferative assay, HepG2; format: cell-based; conditions: Homo sapiens, 48 h, CCK8, mean of three independent experiments, NA = no activity, read-out: Inhibitory Ratio (Mean% ± SD%) HepG2
Experimental: as §1, §2, §3

[3] = system: THLE-2 (normal human cells); experiment: CCK-8 cytotoxicity on normal cells, THLE-2; format: cell-based; conditions: for inhibition at 20 µM: 48 h, CCK8, NA = no activity, read-out: Inhibitory Ratio (Mean% ± SD%) THLE-2; for IC50: CCK-8, 48 h
Experimental: as §1, §2, §3

Compound	inhibition at 20 µM (MCF-7 (breast carcinoma))	inhibition at 20 µM [1]	IC50 [1]	SI: Selectivity index = (IC50 of THLE-2)/(IC50 of PC-3) [1]	inhibition at 20 µM [2]	inhibition at 20 µM [3]	IC50 [3]	melting point
O=c1[nH]cc(F)c(=O)[nH]1 [Compound 5-FU, 5-fluorouracil, reference compound]	47.9 ± 1.67%	35 ± 1.46%	22.4 ± 0.41 µM	0.58	47.7 ± 1.3%	51.8 ± 0.69%	12.9 µM	–
CC1(C)C2=CCC3C(CC[C@@]4(C)C3CC[C@@H]4C(=O)O)[C@@]2(C)Cc2nccnc21 (stereo partly shown) [Compound 5a]	3.09 ± 1.05%	25.1 ± 2.64%	–	–	17.9 ± 1.16%	–	–	270 to 292 °C
CC1(C)C2=CCC3C(CC[C@@]4(C)C3CC[C@@H]4C(=O)O)[C@@]2(C)Cc2nc3ccccc3nc21 (stereo partly shown) [Compound 5b]	–	12.5 ± 12.9%	–	–	7.24 ± 5.83%	12.6 ± 1.22%	–	–
CC1(C)C2=CCC3C(CC[C@@]4(C)C3CC[C@@H]4C(=O)O)[C@@]2(C)Cc2nc3cc(Br)ccc3nc21 (stereo partly shown) [Compound 5c]	6.86 ± 7.46%	20.7 ± 12.5%	–	–	–	12.5 ± 0.9%	–	–
CC1(C)C2=CCC3C(CC[C@@]4(C)C3CC[C@@H]4C(=O)O)[C@@]2(C)Cc2nc3ccc(Br)cc3nc21 (stereo partly shown) [Compound 5d]	12.4 ± 0.3%	30 to 60%	–	–	–	2.39 ± 0.65%	–	–
CC1(C)C2=CCC3C(CC[C@@]4(C)C3CC[C@@H]4C(=O)O)[C@@]2(C)Cc2nc3cc(O)ccc3nc21 (stereo partly shown) [Compound 5e]	6.57 ± 0.09%	–	–	–	–	–	–	–
CC1(C)C2=CCC3C(CC[C@@]4(C)C3CC[C@@H]4C(=O)O)[C@@]2(C)Cc2nc3ccc(O)cc3nc21 (stereo partly shown) [Compound 5f]	18.4 ± 13.1%	–	–	–	24.9 ± 2.3%	–	–	–
CC(O)C1CCC2C3CC=C4C(C)(C)c5nccnc5CC4(C)C3CCC12C (stereo not shown) [Compound 10a]	4.99 ± 3.09%	–	–	–	6.2 ± 5.25%	–	–	150 to 152 °C
CC(O)C1CCC2C3CC=C4C(C)(C)c5nc6ccccc6nc5CC4(C)C3CCC12C (stereo not shown) [Compound 10b]	9.95 ± 0.55%	12.5 ± 12.9%	–	–	7.24 ± 5.83%	4.35 ± 2.27%	–	–
CC(O)C1CCC2C3CC=C4C(C)(C)c5nc6ccc(F)cc6nc5CC4(C)C3CCC12C (stereo not shown) [Compound 10c]	3.85 ± 1.97%	24.9 ± 2.12%	–	–	–	–	–	–
CC(O)C1CCC2C3CC=C4C(C)(C)c5nc6cc(F)ccc6nc5CC4(C)C3CCC12C (stereo not shown) [Compound 10d]	21.2 ± 9.12%	52.8 ± 0.86%	–	–	22.4 ± 4.89%	–	–	–
CC(O)C1CCC2C3CC=C4C(C)(C)c5nc6ccc(Cl)cc6nc5CC4(C)C3CCC12C (stereo not shown) [Compound 10e]	–	44.8 ± 3.26%	–	–	25.6 ± 2.51%	–	–	–
CC(O)C1CCC2C3CC=C4C(C)(C)c5nc6cc(Cl)ccc6nc5CC4(C)C3CCC12C (stereo not shown) [Compound 10f]	23.9 ± 1.87%	59.6 ± 1.29%	–	–	32.6 ± 0.41%	–	–	–
CC(O)C1CCC2C3CC=C4C(C)(C)c5nc6ccc(Br)cc6nc5CC4(C)C3CCC12C (stereo not shown) [Compound 10g]	–	–	–	–	11.7 ± 2.56%	–	–	–
CC(O)C1CCC2C3CC=C4C(C)(C)c5nc6cc(Br)ccc6nc5CC4(C)C3CCC12C (stereo not shown) [Compound 10h]	21.2 ± 3.73%	21.7 ± 1.27%	–	–	13.1 ± 0.68%	2.39 ± 0.07%	–	–
CC(O)C1CCC2C3CC=C4C(C)(C)c5nc6ccc(O)cc6nc5CC4(C)C3CCC12C (stereo not shown) [Compound 10i]	17.9 ± 6.61%	14.2 ± 0.87%	–	–	–	–	–	–
CC(O)C1CCC2C3CC=C4C(C)(C)c5nc6cc(O)ccc6nc5CC4(C)C3CCC12C (stereo not shown) [Compound 10j]	18.6 ± 0.92%	30 to 60%	–	–	–	–	–	–
COc1ccc2nc3c(nc2c1)CC1(C)C(=CCC2C1CCC1(C)C(C(C)O)CCC21)C3(C)C (stereo not shown) [Compound 10k]	11.2 ± 0.49%	–	–	–	29.3 ± 5.38%	3.54 ± 2.16%	–	–

Compound	inhibition at 20 µM (MCF-7 (breast carcinoma))	inhibition at 20 µM [1]	IC50 [1]	SI: Selectivity index = (IC50 of THLE-2)/(IC50 of PC-3) [1]	inhibition at 20 µM [2]	inhibition at 20 µM [3]	IC50 [3]	melting point
COc1ccc2nc3c(nc2c1)C(C)(C)C1=CCC2C(CCC4(C)C(C(C)O)CCC24)C1(C)C3 (stereo not shown) [Compound 10l]	41.6 ± 1.28%	30 to 60%	–	–	33.3 ± 1.13%	22.2 ± 2.72%	–	–
CC(O)C1CCC2C3CC=C4C(C)(C)c5nc6ccc([N+](=O)[O-])cc6nc5CC4(C)C3CCC12C (stereo not shown) [Compound 10m]	14.7 ± 0.25%	16 ± 0.57%	–	–	18.2 ± 7.46%	–	–	–
CC(O)C1CCC2C3CC=C4C(C)(C)c5nc6cc([N+](=O)[O-])ccc6nc5CC4(C)C3CCC12C (stereo not shown) [Compound 10n]	20 ± 2.56%	16.6 ± 3.72%	–	–	18.7 ± 2.69%	–	–	–
CC(O)C1CCC2C3CC=C4C(C)(C)c5nc(C(=O)Nc6ccccc6)cnc5CC4(C)C3CCC12C (stereo not shown) [Compound 12a]	–	24.2 ± 0.94%	–	–	12.5 ± 12.9%	–	–	–
Cc1ccccc1NC(=O)c1cnc2c(n1)C(C)(C)C1=CCC3C(CCC4(C)C(C(C)O)CCC34)C1(C)C2 (stereo not shown) [Compound 12b]	8.12 ± 3.17%	20.8 ± 7.04%	–	–	15.2 ± 5.61%	5.15 ± 1.79%	–	–
Cc1cccc(NC(=O)c2cnc3c(n2)C(C)(C)C2=CCC4C(CCC5(C)C(C(C)O)CCC45)C2(C)C3)c1 (stereo not shown) [Compound 12c]	3.57 ± 1.69%	19.9 ± 0.43%	–	–	7.02 ± 3.1%	–	–	–
Cc1ccc(NC(=O)c2cnc3c(n2)C(C)(C)C2=CCC4C(CCC5(C)C(C(C)O)CCC45)C2(C)C3)cc1 (stereo not shown) [Compound 12d]	25 ± 3.43%	22.6 ± 2.25%	–	–	16.3 ± 3.72%	18.2 ± 6.76%	–	–
CC(O)C1CCC2C3CC=C4C(C)(C)c5nc(C(=O)Nc6ccccc6F)cnc5CC4(C)C3CCC12C (stereo not shown) [Compound 12e]	3.28 ± 1.9%	47 ± 3.47%	–	–	17.6 ± 3.19%	14 ± 1.47%	–	–
CC(O)C1CCC2C3CC=C4C(C)(C)c5nc(C(=O)Nc6cccc(F)c6)cnc5CC4(C)C3CCC12C (stereo not shown) [Compound 12f]	0.8 ± 3.31%	33.2 ± 4.68%	–	–	12.8 ± 4.26%	–	–	–
CC(O)C1CCC2C3CC=C4C(C)(C)c5nc(C(=O)Nc6ccc(F)cc6)cnc5CC4(C)C3CCC12C (stereo not shown) [Compound 12g]	33.4 ± 5.35%	> 60%	6.88 ± 0.04 µM	2.14	–	17.6 ± 1.39%	14.7 µM	–
CC(O)C1CCC2C3CC=C4C(C)(C)c5nc(C(=O)Nc6ccccc6Cl)cnc5CC4(C)C3CCC12C (stereo not shown) [Compound 12h]	–	41.7 ± 4.79%	–	–	21.9 ± 2.05%	–	–	–
CC(O)C1CCC2C3CC=C4C(C)(C)c5nc(C(=O)Nc6cccc(Cl)c6)cnc5CC4(C)C3CCC12C (stereo not shown) [Compound 12i]	20.2 ± 0.52%	35.9 ± 2.97%	–	–	15.9 ± 2.93%	–	–	–
CC(O)C1CCC2C3CC=C4C(C)(C)c5nc(C(=O)Nc6ccc(Cl)cc6)cnc5CC4(C)C3CCC12C (stereo not shown) [Compound 12j]	24.9 ± 4.84%	51.1 ± 1.02%	–	–	23.1 ± 1.27%	–	–	–
COc1ccccc1NC(=O)c1cnc2c(n1)C(C)(C)C1=CCC3C(CCC4(C)C(C(C)O)CCC34)C1(C)C2 (stereo not shown) [Compound 12k]	17.7 ± 1.01%	32.9 ± 1.19%	–	–	12.9 ± 0.43%	4.71 ± 1.25%	–	–
COc1cccc(NC(=O)c2cnc3c(n2)C(C)(C)C2=CCC4C(CCC5(C)C(C(C)O)CCC45)C2(C)C3)c1 (stereo not shown) [Compound 12l]	13.8 ± 2.32%	26.9 ± 1.71%	–	–	12 ± 1.67%	–	–	–
COc1ccc(NC(=O)c2cnc3c(n2)C(C)(C)C2=CCC4C(CCC5(C)C(C(C)O)CCC45)C2(C)C3)cc1 (stereo not shown) [Compound 12m]	20 ± 2.33%	30 to 60%	–	–	20.3 ± 3.6%	5.68 ± 1.9%	–	–
CC(O)C1CCC2C3CC=C4C(C)(C)c5nc(C(=O)NC6CCCCC6)cnc5CC4(C)C3CCC12C (stereo not shown) [Compound 12o]	15.1 ± 1.25%	–	–	–	24.1 ± 2.34%	–	–	–
